Experimental findings from paper PMC10583824, “The rational design of ARUK2007145, a dual inhibitor of the α and γ isoforms of the lipid kinase phosphatidylinositol 5-phosphate 4-kinase (PI5P4K)” (RSC Medicinal Chemistry, 2023) are described below.

As a reminder, the IC50 is the midpoint of a concentration-inhibition curve. Low values mean higher potency, high ones lower potency.

The subject of test [1] is PI5P4Kγ+. The note with it: ratio PI5P4Kα IC50 / PI5P4Kγ+ IC50, ADP-Glo. (In ADP-Glo the light output rises with the ADP produced.)
For test [2], the target named is T1, PI5P4Kα (Homo sapiens, UniProt P48426).
T1 sequence (P48426 1-406): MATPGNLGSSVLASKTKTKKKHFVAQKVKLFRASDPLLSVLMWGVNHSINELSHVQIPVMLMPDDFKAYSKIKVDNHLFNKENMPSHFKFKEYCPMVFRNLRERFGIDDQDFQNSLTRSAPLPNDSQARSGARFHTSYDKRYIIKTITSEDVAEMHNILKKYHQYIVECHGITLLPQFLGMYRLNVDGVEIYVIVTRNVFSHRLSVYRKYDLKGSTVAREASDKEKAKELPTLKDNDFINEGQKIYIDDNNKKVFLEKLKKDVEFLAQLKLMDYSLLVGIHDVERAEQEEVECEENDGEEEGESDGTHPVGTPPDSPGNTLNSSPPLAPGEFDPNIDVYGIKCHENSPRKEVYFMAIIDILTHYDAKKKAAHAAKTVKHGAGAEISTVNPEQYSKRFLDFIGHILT
Put plainly: biochemical.

The target of test [3] is T2, PI5P4Kγ+ (Homo sapiens, UniProt Q8TBX8, D138G/D197E/E133P/E135D/E153T/E196G/G139A/N195G/S132L/S134N).
T2 sequence (Q8TBX8 with tags, fused parts or gaps INS131LPN/S132D/E133S/S134Q/E135A/G136R/D138G/G139A/E153T/N195G/E196G/D197E): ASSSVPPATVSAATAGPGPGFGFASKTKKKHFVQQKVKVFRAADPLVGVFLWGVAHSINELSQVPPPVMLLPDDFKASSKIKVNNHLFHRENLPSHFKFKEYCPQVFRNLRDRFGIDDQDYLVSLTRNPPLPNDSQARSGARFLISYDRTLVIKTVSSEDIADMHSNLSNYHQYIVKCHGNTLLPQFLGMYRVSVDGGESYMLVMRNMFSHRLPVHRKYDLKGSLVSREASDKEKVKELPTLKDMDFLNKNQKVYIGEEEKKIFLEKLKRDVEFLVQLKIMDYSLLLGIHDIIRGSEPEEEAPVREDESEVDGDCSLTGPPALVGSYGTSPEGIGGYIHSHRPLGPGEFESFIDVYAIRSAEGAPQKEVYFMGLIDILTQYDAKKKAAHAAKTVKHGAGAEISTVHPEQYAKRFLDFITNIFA
Put plainly: biochemical.

The target of test [4] is T1, PI5P4Kα. The settings on record: for ADP-Glo pIC50 PI5P4Kα: Table S1, two decimals, asterisk not explained; for PI5P4Kα pIC50: footnote a: inconsistent replicates, value shown is upper limit.
The mark [5] stands for this setting: PI5P4Kα pIC50, ADP-Glo, footnote a: inconsistent replicates, value shown is upper limit.
The mark [6] stands for this setting: ADP-Glo pIC50 PI5P4Kγ+, Table S1, two decimals, asterisk not explained.
Setting [7] is: PI5P4Kγ+ pIC50, ADP-Glo, footnote a: inconsistent replicates, value shown is upper limit.

`CS(=O)(=O)c1ccc(Nc2ncnc3sc(-c4ccnc(Cl)c4)cc23)cc1` [Compound 13]: in the test on PI5P4Kγ+ [1], the “Fold-selectivity (α IC50/γ IC50)” value amounted to 130. Besides, the IC50 at PI5P4Kα [2] (setting [5]) was at least 7940 nM; at PI5P4Kγ+ [3] (setting [6]), 64.6 nM; on PI5P4Kγ+ [3] (setting [7]), 63.1 nM. The “ADP-Glo pIC50 PI5P4Kα” value at PI5P4Kα [4] was found to be 5.08.
Turning to `CS(=O)(=O)c1ccc(Nc2ncnc3sc(-c4cccnc4F)cc23)cc1` [Compound 16], in the test on PI5P4Kγ+ [1], the “Fold-selectivity (α IC50/γ IC50)” value amounted to 50. In addition, the IC50 was 1480 nM against PI5P4Kα [2] (ADP-Glo pIC50 PI5P4Kα, Table S1, two decimals, asterisk not explained); at least 1580 nM on PI5P4Kα [2] (setting [5]); 31.6 nM against PI5P4Kγ+ [3] (setting [7]).
In the case of `Cc1ccc(Nc2ncnc3sc(-c4cccnc4C)cc23)cc1C` [Compound 18], the “Fold-selectivity (α IC50/γ IC50)” value in the test with PI5P4Kγ+ [1] is recorded as 0.25. Besides, the IC50 is 1350 nM against PI5P4Kγ+ [3] (setting [6]) and 1260 nM at PI5P4Kγ+ [3] (setting [7]). For the same compound, the “PI5P4Kα pIC50” value on PI5P4Kα [4] (ADP-Glo) is 6.5. Moreover, the “ADP-Glo pIC50 PI5P4Kα” value at PI5P4Kα [4] worked out at 6.48.
The matching figures for `Cc1ccc(Nc2ncnc3sc(-c4cccnc4C)cc23)c(C)c1` [Compound 19]: 0.79, 4370 nM, 3980 nM, 5.5 and 5.48.
Regarding `COc1ccc(Nc2ncnc3sc(-c4cccnc4C)cc23)cc1` [Compound 20], the “Fold-selectivity (α IC50/γ IC50)” value in the test with PI5P4Kγ+ [1] amounted to 0.69. Besides, the IC50 at PI5P4Kγ+ [3] (setting [6]) was 1910 nM; on PI5P4Kγ+ [3] (setting [7]), 2000 nM. The “PI5P4Kα pIC50” value on PI5P4Kα [4] (ADP-Glo) was found to be 5.9. Further, the “ADP-Glo pIC50 PI5P4Kα” value at PI5P4Kα [4] is 5.88.
For `Cc1ccc(Nc2ncnc3sc(-c4cccnc4C)cc23)cc1` [Compound 22], in that order: 0.4, 1550 nM, 1580 nM, 6.2 and 6.22.
For `CCc1ccc(Nc2ncnc3sc(-c4cccnc4C)cc23)cc1` [Compound 23], in that order: 1.6, 389 nM, 398 nM, 6.2 and 6.22.
Turning to `Cc1ncccc1-c1cc2c(Nc3ccc(C4CC4)cc3)ncnc2s1` [Compound 24], the “Fold-selectivity (α IC50/γ IC50)” value with PI5P4Kγ+ [1] was 2.5. In addition, the IC50 against PI5P4Kγ+ [3] (setting [6]) is 110 nM; against PI5P4Kγ+ [3] (setting [7]), 100 nM. Besides, the “PI5P4Kα pIC50” value at PI5P4Kα [4] (ADP-Glo) is 6.6. For the same compound, the “ADP-Glo pIC50 PI5P4Kα” value on PI5P4Kα [4] is 6.62.
Turning to `CSc1ccc(Nc2ncnc3sc(-c4cnoc4)cc23)cc1` [Compound 29], in the test on PI5P4Kγ+ [1], the “Fold-selectivity (α IC50/γ IC50)” value turned out to be 6.0. In addition, the values for the IC50 against PI5P4Kγ+ [3] (setting [6]) and on PI5P4Kγ+ [3] (setting [7]) were 42.7 nM and 39.8 nM, respectively. Besides, the “PI5P4Kα pIC50” value at PI5P4Kα [4] (ADP-Glo) is given as 6.6. The “ADP-Glo pIC50 PI5P4Kα” value on PI5P4Kα [4] amounted to 6.59.
The matching figures for `CSc1ccc(Nc2ncnc3sc(-c4c(C)noc4C)cc23)cc1` [Compound 30]: 6.3, 24.5 nM, 25.1 nM, 6.8 and 6.81.
For the compound `Cc1csc2ncnc(Nc3ccc(S(C)(=O)=O)cc3)c12` [Compound 31], in the test with PI5P4Kγ+ [1], the “Fold-selectivity (α IC50/γ IC50)” value is above 980. This compound gave an IC50 against PI5P4Kγ+ [3] (setting [7]) of 50.1 nM. The “PI5P4Kα pIC50” value at PI5P4Kα [4] (ADP-Glo) is below 4.3.
`CS(=O)(=O)c1ccc(Nc2ncnc3scc(C4CC4)c23)cc1` [Compound 33] showed an IC50 against PI5P4Kγ+ [3] (setting [7]) of 100 nM. Moreover, the “PI5P4Kα pIC50” value on PI5P4Kα [4] (ADP-Glo) was below 4.8.
For `CN(C(=O)c1csc2ncnc(Nc3ccc(S(C)(=O)=O)cc3)c12)c1ccccc1` [Compound 34], the “Fold-selectivity (α IC50/γ IC50)” value with PI5P4Kγ+ [1] is on record as 50. The compound also had an IC50 on PI5P4Kγ+ [3] (setting [7]) of 50.1 nM. The “PI5P4Kα pIC50” value on PI5P4Kα [4] (ADP-Glo) turned out to be 5.6.
Turning to `Cc1sc2ncnc(Nc3ccc(S(C)(=O)=O)cc3)c2c1C` [Compound 35], the “Fold-selectivity (α IC50/γ IC50)” value with PI5P4Kγ+ [1] was above 250. For the same compound, on PI5P4Kγ+ [3] (setting [7]), the IC50 is 200 nM. Further, at PI5P4Kα [4] (ADP-Glo), the “PI5P4Kα pIC50” value is below 4.3.
Turning to `CS(=O)(=O)c1ccc(Nc2ncnc3ccsc23)cc1` [Compound 36], the IC50 against PI5P4Kγ+ [3] (setting [7]) was 50.1 nM. At PI5P4Kα [4] (ADP-Glo), the “PI5P4Kα inhibition (in words)” value is given as “undetectable” and the “PI5P4Kα pIC50” value is below 4.3.
For the compound `Cc1ncccc1-c1cc2ncnc(Nc3ccc(S(F)(F)(F)(F)F)cc3)c2s1` [Compound 40], the “Fold-selectivity (α IC50/γ IC50)” value with PI5P4Kγ+ [1] amounted to 6.3. The compound further showed an IC50 on PI5P4Kγ+ [3] (setting [7]) of 100 nM. In addition, the “PI5P4Kα pIC50” value at PI5P4Kα [4] (ADP-Glo) stood at 6.2.
With `Cc1ncccc1-c1cc2ncnc(Nc3ccc4ncoc4c3)c2s1` [Compound 41], in the test with PI5P4Kγ+ [1], the “Fold-selectivity (α IC50/γ IC50)” value is given as 5.9. The IC50 was 562 nM against PI5P4Kγ+ [3] (setting [6]) and 501 nM against PI5P4Kγ+ [3] (setting [7]). At PI5P4Kα [4] (ADP-Glo), the “PI5P4Kα pIC50” value is 5.5. Also, at PI5P4Kα [4], the “ADP-Glo pIC50 PI5P4Kα” value is listed as 5.48.
